Measured values published in patent US4386077A (Made Italiana s.r.l, priority 1981, dated 1983).

Columns and labels:
[1] = Serum kinetics and absolute bioavailability of ^14 C-labelled CDP-choline and "ASONIC" after i.v. and oral administration in Cynomolgus monkeys; format: in vivo, Cynomolgus monkey; details: for Absolute bioavailability F: oral
Protocol: From the end of the curves serum concentration/time, it was possible to calculate the constant of the apparent elimination speed from the organism as well as the relative half-life. These values were utilized in calculating the AUC T30 hours →T.infin. for the total of the curves concentration/time in the same animal. The AUC To →T30 hrs was calculated by means of the trapezium methods. […] For each dosage, a randomized cross-over procedure was used. Seriated blood samples were collected until 30 hours after each administration. From the single curves concentration/time it was possible to calculate the AUC To →T30 hrs. After each administration, including the intravenous one, urine was collected at the following time intervals: 0-24 hours, 24-48 hours and 48-72 hours.

[2] = Cumulative urinary elimination in Cynomolgus monkeys; format: in vivo, Cynomolgus monkey
Protocol: Blood was collected at the following time: 0 (basal values) and 5, 10, 15, 30, 60 minutes, 2, 4, 7, 24 and 30 hours after the administration. From the end of the curves serum concentration/time, it was possible to calculate the constant of the apparent elimination speed from the organism as well as the relative half-life. These values were utilized in calculating the AUC T30 hours →T.infin. for the total of the curves concentration/time in the same animal. The AUC To →T30 hrs was calculated by means of the trapezium methods. […] For each dosage, a randomized cross-over procedure was used. Seriated blood samples were collected until 30 hours after each administration. From the single curves concentration/time it was possible to calculate the AUC To →T30 hrs. After each administration, including the intravenous one, urine was collected at the following time intervals: 0-24 hours, 24-48 hours and 48-72 hours.

`C[N+](C)(C)CCOP(=O)(O)OP(=O)([O-])OC[C@H]1O[C@@H](n2ccc(N)nc2=O)[C@H](O)[C@@H]1O` [CDP-choline, cytidine diphosphocholine] showed a Serum concentration ([1]; monkey no. 2, 25 mg/kg i.v., 30') of 3467 DPM/ml, a Serum concentration ([1]; monkey no. 2, 25 mg/kg i.v., 60') of 2625 DPM/ml and a Serum concentration ([1]; monkey no. 2, 25 mg/kg i.v., 2 hr) of 2630 DPM/ml. The Serum concentration ([1]; monkey no. 2, 25 mg/kg i.v., 4 hr) was 3369 DPM/ml, the Serum concentration ([1]; monkey no. 2, 25 mg/kg i.v., 7 hr) was 4013 DPM/ml and the Serum concentration ([1]; monkey no. 2, 25 mg/kg i.v., 24 hr) was 2258 DPM/ml. For the same compound, the Serum concentration ([1]; monkey no. 2, 25 mg/kg i.v., 30 hr) was 2145 DPM/ml, the Serum concentration ([1]; monkey no. 2, 200 mg/kg per os, 15') was 61 DPM/ml and the Serum concentration ([1]; monkey no. 2, 200 mg/kg per os, 45') was 59 DPM/ml. For the same compound, the Serum concentration ([1]; monkey no. 2, 200 mg/kg per os, 60') was 94 DPM/ml, the Serum concentration ([1]; monkey no. 2, 200 mg/kg per os, 7 hr) was 696 DPM/ml and the Serum concentration ([1]; monkey no. 2, 200 mg/kg per os, 9 hr) was 595 DPM/ml. It also gave a Serum concentration ([1]; monkey no. 2, 200 mg/kg per os, 24 hr) of 417 DPM/ml, a Serum concentration ([1]; monkey no. 2, 200 mg/kg per os, 30 hr) of 303 DPM/ml and a Serum concentration ([1]; monkey no. 2, 400 mg/kg per os, 60') of 69 DPM/ml. The Serum concentration ([1]; monkey no. 2, 400 mg/kg per os, 90') was 52 DPM/ml, the Serum concentration ([1]; monkey no. 2, 400 mg/kg per os, 2 hr) was 81 DPM/ml and the Serum concentration ([1]; monkey no. 2, 400 mg/kg per os, 3 hr) was 174 DPM/ml. It also gave a Serum concentration ([1]; monkey no. 2, 400 mg/kg per os, 4 hr) of 495 DPM/ml, a Serum concentration ([1]; monkey no. 2, 400 mg/kg per os, 6 hr) of 1.401 DPM/ml and a Serum concentration ([1]; monkey no. 2, 400 mg/kg per os, 7 hr) of 2.560 DPM/ml. The Serum concentration ([1]; monkey no. 2, 400 mg/kg per os, 8 hr) was 4.235 DPM/ml, the Serum concentration ([1]; monkey no. 2, 400 mg/kg per os, 9 hr) was 4.450 DPM/ml and the Serum concentration ([1]; monkey no. 2, 400 mg/kg per os, 24 hr) was 449 DPM/ml. The Serum concentration ([1]; monkey no. 2, 400 mg/kg per os, 30 hr) was 401 DPM/ml, the “Absolute bioavailability” value ([1]; monkeys, oral control dosages) was “much lower” and the “Absolute bioavailability F” value ([1]; monkeys, 200 mg/kg as CDP-choline) was 0.2143. For the same compound, the “Absolute bioavailability F” value ([1]; monkeys, 400 mg/kg as CDP-choline) was 0.6174, the Cumulative urinary elimination ([2]; average and S.D. of 2 monkeys, 25 mg/kg i.v., 0-24 hr) was 50.65 ± 2.33 % OF THE ADMINISTERED DOSE and the Cumulative urinary elimination ([2]; average and S.D. of 2 monkeys, 25 mg/kg i.v., 0-72 hr) was 53.5 ± 3.25 % OF THE ADMINISTERED DOSE. For the same compound, the Cumulative urinary elimination ([2]; average and S.D. of 2 monkeys, 25 mg/kg i.v., 24-48 hr) was 2.5 ± 0.99 % OF THE ADMINISTERED DOSE, the Cumulative urinary elimination ([2]; average and S.D. of 2 monkeys, 25 mg/kg i.v., 48-72 hr) was 0.35 ± 0.07 % OF THE ADMINISTERED DOSE and the Cumulative urinary elimination ([2]; average and S.D. of 2 monkeys, 200 mg/kg per os, 0-24 hr) was 42.75 ± 6.15 % OF THE ADMINISTERED DOSE. The Cumulative urinary elimination ([2]; average and S.D. of 2 monkeys, 200 mg/kg per os, 0-72 hr) was 47.5 ± 3.11 % OF THE ADMINISTERED DOSE, the Cumulative urinary elimination ([2]; average and S.D. of 2 monkeys, 200 mg/kg per os, 24-48 hr) was 4.2 ± 2.83 % OF THE ADMINISTERED DOSE and the Cumulative urinary elimination ([2]; average and S.D. of 2 monkeys, 200 mg/kg per os, 48-72 hr) was 0.55 ± 0.21 % OF THE ADMINISTERED DOSE. For the same compound, the Cumulative urinary elimination ([2]; average and S.D. of 2 monkeys, 400 mg/kg per os, 0-24 hr) was 31.3 ± 9.3 % OF THE ADMINISTERED DOSE, the Cumulative urinary elimination ([2]; average and S.D. of 2 monkeys, 400 mg/kg per os, 0-72 hr) was 37.65 ± 8.98 % OF THE ADMINISTERED DOSE and the Cumulative urinary elimination ([2]; average and S.D. of 2 monkeys, 400 mg/kg per os, 24-48 hr) was 5.6 ± 0.56 % OF THE ADMINISTERED DOSE. The Cumulative urinary elimination ([2]; average and S.D. of 2 monkeys, 400 mg/kg per os, 48-72 hr) was 0.75 ± 0.21 % OF THE ADMINISTERED DOSE, the Cumulative urinary elimination ([2]; monkey no. 1, 25 mg/kg i.v., 0-24 hr) was 49 % OF THE ADMINISTERED DOSE and the Cumulative urinary elimination ([2]; monkey no. 1, 25 mg/kg i.v., 0-72 hr) was 51.2 % OF THE ADMINISTERED DOSE. The Cumulative urinary elimination ([2]; monkey no. 1, 25 mg/kg i.v., 24-48 hr) was 1.8 % OF THE ADMINISTERED DOSE, the Cumulative urinary elimination ([2]; monkey no. 1, 25 mg/kg i.v., 48-72 hr) was 0.4 % OF THE ADMINISTERED DOSE and the Cumulative urinary elimination ([2]; monkey no. 1, 200 mg/kg per os, 0-24 hr) was 38.4 % OF THE ADMINISTERED DOSE. For the same compound, the Cumulative urinary elimination ([2]; monkey no. 1, 200 mg/kg per os, 0-72 hr) was 45.3 % OF THE ADMINISTERED DOSE, the Cumulative urinary elimination ([2]; monkey no. 1, 200 mg/kg per os, 24-48 hr) was 6.2 % OF THE ADMINISTERED DOSE and the Cumulative urinary elimination ([2]; monkey no. 1, 200 mg/kg per os, 48-72 hr) was 0.7 % OF THE ADMINISTERED DOSE. For the same compound, the Cumulative urinary elimination ([2]; monkey no. 1, 400 mg/kg per os, 0-24 hr) was 24.7 % OF THE ADMINISTERED DOSE, the Cumulative urinary elimination ([2]; monkey no. 1, 400 mg/kg per os, 0-72 hr) was 31.3 % OF THE ADMINISTERED DOSE and the Cumulative urinary elimination ([2]; monkey no. 1, 400 mg/kg per os, 24-48 hr) was 6.0 % OF THE ADMINISTERED DOSE. For the same compound, the Cumulative urinary elimination ([2]; monkey no. 1, 400 mg/kg per os, 48-72 hr) was 0.6 % OF THE ADMINISTERED DOSE, the Cumulative urinary elimination ([2]; monkey no. 2, 25 mg/kg i.v., 0-24 hr) was 52.3 % OF THE ADMINISTERED DOSE and the Cumulative urinary elimination ([2]; monkey no. 2, 25 mg/kg i.v., 0-72 hr) was 55.8 % OF THE ADMINISTERED DOSE. For the same compound, the Cumulative urinary elimination ([2]; monkey no. 2, 25 mg/kg i.v., 24-48 hr) was 3.2 % OF THE ADMINISTERED DOSE, the Cumulative urinary elimination ([2]; monkey no. 2, 25 mg/kg i.v., 48-72 hr) was 0.3 % OF THE ADMINISTERED DOSE and the Cumulative urinary elimination ([2]; monkey no. 2, 200 mg/kg per os, 0-24 hr) was 47.1 % OF THE ADMINISTERED DOSE. The Cumulative urinary elimination ([2]; monkey no. 2, 200 mg/kg per os, 0-72 hr) was 49.7 % OF THE ADMINISTERED DOSE, the Cumulative urinary elimination ([2]; monkey no. 2, 200 mg/kg per os, 24-48 hr) was 2.2 % OF THE ADMINISTERED DOSE and the Cumulative urinary elimination ([2]; monkey no. 2, 200 mg/kg per os, 48-72 hr) was 0.4 % OF THE ADMINISTERED DOSE. The Cumulative urinary elimination ([2]; monkey no. 2, 400 mg/kg per os, 0-24 hr) was 37.9 % OF THE ADMINISTERED DOSE, the Cumulative urinary elimination ([2]; monkey no. 2, 400 mg/kg per os, 0-72 hr) was 44.0 % OF THE ADMINISTERED DOSE and the Cumulative urinary elimination ([2]; monkey no. 2, 400 mg/kg per os, 24-48 hr) was 5.2 % OF THE ADMINISTERED DOSE. The Cumulative urinary elimination ([2]; monkey no. 2, 400 mg/kg per os, 48-72 hr) was 0.9 % OF THE ADMINISTERED DOSE.
